Test results from patent US9174998B2, “(6S,9aS)-N-benzyl-6-[(4-hydroxyphenyl)methyl]-4,7-dioxo-8-({6-[3-(piperazin-1-yl)azetidin-1-yl]pyridin-2-yl}methyl)-2-(prop-2-en-1-yl)-octahydro-1H-pyrazino[2,1-c][1,2,4]triazine-1-carboxamide compound” (Eisai R&D Management Co., Ltd., priority 2013, dated 2015).
In brackets after ≈: the same amount, converted by molar mass. Read-outs that look alike come from different tables or passages of the source.

Assays:
[1] = test system: Wnt signal; assay: Detection of Wnt signal (TOPglow luciferase reporter, LiCl-stimulated); type: cell-based; conditions: Homo sapiens; HEK293 clone carrying pNeo-TOP reporter; LiCl stimulation; luciferase luminescence; read-out: Test Example 1 IC50 (concentration required for inhibiting the Wnt signal activity by 50%)
Procedure: pcDNA3.1(+) (invitrogen) was cleaved with restriction enzymes BglII and NotI, and an adapter BEHKS having a sequence shown below (containing restriction enzyme sites BglII, EcoRI, HindIII, KpnI, SacI and NotI) was inserted thereinto, thereby producing a plasmid pNeo-HKS.
Subsequently, a fragment having a length of about 2700 bp (containing a Wnt-responsive sequence and a luciferase gene), which was prepared by cleaving from a TOPglow plasmid contained in a TOPglow/FOPglow TCF Reporter Kit (upstate Catalog#17-366) with restriction enzymes HindIII and KpnI, was inserted between HindIII and KpnI in pNeo-HKS, thereby producing a plasmid pNeo-TOP. The plasmid pNeo-TOP was introduced into human fetus-derived renal cell strain HEK293, then a compound was selected using G418, and then a cell clone strain was established by a limiting dilution method. The cell clone strain was subjected to a Wnt signal detection test.
The cell clone strain was subcultured in a D-MEM glucose-rich culture medium (Wako Pure Chemical Industries, Ltd.) containing 10% FBS, and cells in a growth phase were used in the test. Cells were collected using trypsin-EDTA, the number of the cells was counted, and then the cells were suspended in a D-MEM glucose-rich culture medium containing 10% FBS so that the number of cells became 2×10^5 cells/mL. The cell suspension was added to a 96-well cell culture plate (Greiner Bio-One Co., Ltd., product number: 655083) in an amount of 0.1 mL/well and then cultured overnight in a 5% CO2 incubator (37° C.). After the culturing, a substance to be tested, which was dissolved in DMSO, was diluted with a D-MEM glucose-rich culture medium containing 10% of FBS and 80 mM of LiCl to produce a sample solution. The sample solution (0.1 mL) was added to each well and then cultured in a 5% CO2 incubator (37° C.) […]. Six hours after the addition of the sample solution, a supernatant was removed from each well, and then 50 μL of Bright-Glo™ Luciferase substrate (Promega, product number: E2620) was added thereto. The plate was put on a plate mixer for several seconds, and then the emission of light from each well was measured using a EnVision™ Multilabel plate reader (PerkinElmer Co., Ltd.). The Wnt signal activation rate (%) of each well was determined, and a concentration (IC50) which is required for inhibiting the Wnt signal activity of a substance of interest by 50% was calculated, wherein the luminosity of a well to which a sample solution was not added and LiCl was added was defined as a 100% Wnt signal activity and the luminosity of a well to which either of a sample solution or LiCl was not added was defined as a 0% Wnt signal activity.

[2] = Evaluation of metabolic stability; type: in vitro ADME, human; conditions: 0.2 mg/mL HLM, 0.1 μM test substance, 15 minutes at 37° C., with vs without NADPH production
Procedure: A test substance was dissolved in DMSO so that the concentration of the resultant solution became 20 mM, and the solution was diluted with DMSO so that the concentration of the resultant solution became 1 mM. The metabolic stability of the test substance was evaluated using a human liver microsome (HLM) in which human liver was pooled. An assay buffer solution contained 0.2 mg/mL of HLM, a 0.1 M of phosphate potassium buffer solution (pH 7.4), 0.1 mM of EDTA, 0.33 mM of NADP+, 8 mM of glucose-6-phosphate, 0.1 U/mL of glucose-6-phosphate dehydrogenase, 6 mM of MgCl2, 0.1 μM of a test substance (final concentration in DMSO: 0.01%) in 0.15 mL of the final incubation volume. Fifteen minutes after the initiation of the reaction at 37° C., 0.15 mL of a acetonitrile/methanol mixed solution (7:3, by volume) was added to the solution to terminate the reaction. After centrifugation, the resultant supernatant was analyzed by LC-MSMS, peak areas were compared under the presence or absence of the production of NADPH, and the residual ratio of the test substance was calculated.

[3] = Evaluation of solubility (DMSO stock into PBS, HPLC-UV); type: physicochemical; conditions: Dulbecco's phosphate-buffered saline pH 7, room temperature, about 15 minutes shaking, values greater than 200 μM regarded as 200 μM, read-out: Test Example 3 solubility
Procedure: To 0.25 mL of a test solution a mentioned below was added 2.5 μL of a DMSO solution having a compound concentration of 20 mM. The resultant solution was shaken at room temperature for about 15 minutes (the conditions for the shaking are mentioned below). Subsequently, a supernatant was collected by a suction filtration under a reduced pressure. A DMSO solution having a compound concentration of 200 μM was used as a standard solution, and the concentration of a compound in a filtrate which was quantified by a HPLC-UV method was employed as a solubility (rounded off to the whole number). In this evaluation, since a value 200 μM became the upper limit operationally, all of quantification values greater than 200 μM were regarded as 200 μM.
Test solution: GIBCO (registered trade name) Dulbecco's phosphate-buffered saline (pH 7, Life Technologies Corporation)
Conditions for shaking: a microplate shaker N-704 (Nissinrika Corporation), speed 6

[4] = PAMPA test (parallel artificial membrane permeability assay); type: in vitro ADME; conditions: phosphate buffer pH 6.8, about 200 μM, about 5 hours, room temperature, read-out: Test Example 4 membrane permeation coefficient Pe
Procedure: A test solution (see below) was stirred while shaking at room temperature for about 5 hours using a 96-well PAMPA plate (BD Biosciences) in which a lipid had been precoated onto a polyvinylidene fluoride (PVDF) film to evaluate the membrane permeation coefficient Pe (cm/s) of each compound dissolved in the test solution (concentration: about 200 μM) upon the transport of the compound from a donor side to an acceptor side through a lipid membrane. The Pe value was calculated in accordance with equations 1 and 2, and the concentration of the compound on the donor side and the acceptor side was measured by a HPLC-UV method. In 0.3 mL of the test solution on the donor side is contained about 1% (v/v) of DMSO, since 3 μL of a DMSO solution containing the compound at a concentration of 20 mM was added to the test solution.
Test solution: a phosphate buffer solution having a pH value of 6.8 (90 mM of phosphate, 48 mM of NaCl, 5.4 mM of KCl)
Conditions for stirring: a multishaker MS-300 (AS ONE Corporation), 350 rpm
[formula] CD(t): compound concentration in donor well at time t CA(t): compound concentration in acceptor well at time t VD: donor well volume (0.3 mL) VA: acceptor well volume (0.2 mL) A: filter area (0.3 cm^2)

[5] = aqueous buffer, kinetic from dmso stock

Structure (SMILES) | IC50 [1] | Test Example 2 residual ratio of the test substance [2] | solubility [3, 5] | Papp [4] | solubility [3]
C=CCN1CC(=O)N2[C@@H](Cc3ccc(O)cc3)C(=O)N(Cc3cccnc3N3CCC(N4CCCC4)CC3)C[C@@H]2N1C(=O)NCc1ccccc1 [Comparative Example 1, (6S,9aS)-N-Benzyl-6-(4-hydroxybenzyl)-4,7-dioxo-8-((2-(4-(pyrrolidin-1-yl)piperidin-1-yl)pyridin-3-yl)methyl)-2-(prop-2-en-1-yl)-octahydro-1H-pyrazino[2,1-c][1,2,4]triazine-1-carboxamide, reference compound] | 23200 nM | 52.9% | 97 µM (≈ 67.2 µg/mL) | 1.34 ×10⁻⁶ cm/s | 
C[C@H]1C2N(C(=O)CN(C)N2C(=O)NCc2ccccc2)[C@@H](Cc2ccc(O)cc2)C(=O)N1Cc1cccc2cccnc12 (stereo partly drawn) [Comparative Example 2, (6S,9S)-N-Benzyl-6-(4-hydroxybenzyl)-2,9-dimethyl-4,7-dioxo-8-(quinolin-8-ylmethyl)octahydro-1H-pyrazino[2,1-c][1,2,4]triazine-1-carboxamide, reference compound] | 330 nM | 0.6% | 122 µM (≈ 70.6 µg/mL) | 0.85 ×10⁻⁶ cm/s | 
C=CCN1CC(=O)N2[C@@H](Cc3ccc(O)cc3)C(=O)N(Cc3cccc(N4CC(N5CCN(CC)CC5)C4)n3)C[C@@H]2N1C(=O)NCc1ccccc1 [Example 2, (6S,9aS)-N-Benzyl-8-((6-(3-(4-ethylpiperazin-1-yl)azetidin-1-yl)pyridin-2-yl)methyl)-6-((4-hydroxyphenyl)methyl)-4,7-dioxo-2-(prop-2-en-1-yl)-octahydro-1H-pyrazino[2,1-c][1,2,4]triazine-1-carboxamide] | 290 nM | 58% |  | 1.32 ×10⁻⁶ cm/s | 200 µM (≈ 142 µg/mL)
C=CCN1CC(=O)N2[C@@H](Cc3ccc(O)cc3F)C(=O)N(Cc3cccc(N4CC(N5CCN(C)CC5)C4)n3)C[C@@H]2N1C(=O)NCc1ccccc1 [Example 3, (6S,9aS)-N-Benzyl-6-((2-fluoro-4-hydroxyphenyl)methyl)-8-((6-(3-(4-methylpiperazin-1-yl)azetidin-1-yl)pyridin-2-yl)methyl)-4,7-dioxo-2-(prop-2-en-1-yl)-octahydro-1H-pyrazino[2,1-c][1,2,4]triazine-1-carboxamide] | 150 nM | 54% |  | 1.33 ×10⁻⁶ cm/s | 200 µM (≈ 142 µg/mL)
C=CCN1CC(=O)N2[C@@H](Cc3ccc(O)cc3F)C(=O)N(Cc3cccc(N4CC(N5CCN(C)[C@@H](C)C5)C4)n3)C[C@@H]2N1C(=O)NCc1ccccc1 [Example 4, (6S,9aS)-N-Benzyl-8-((6-(3-((3S)-3,4-dimethylpiperazin-1-yl)azetidin-1-yl)pyridin-2-yl)methyl)-6-((2-fluoro-4-hydroxyphenyl)methyl)-4,7-dioxo-2-(prop-2-en-1-yl)-octahydro-1H-pyrazino[2,1-c][1,2,4]triazine-1-carboxamide] | 60 nM | 44% | 199 µM (≈ 144 µg/mL) | 2.03 ×10⁻⁶ cm/s | 
C=CCN1CC(=O)N2[C@@H](Cc3ccc(O)cc3F)C(=O)N(Cc3cccc(N4CC(N5CCN(C)[C@H](C)C5)C4)n3)C[C@@H]2N1C(=O)NCc1ccccc1 [Example 5, (6S,9aS)-N-Benzyl-8-((6-(3-((3R)-3,4-dimethylpiperazin-1-yl)azetidin-1-yl)pyridin-2-yl)methyl)-6-((2-fluoro-4-hydroxyphenyl)methyl)-4,7-dioxo-2-(prop-2-en-1-yl)-octahydro-1H-pyrazino[2,1-c][1,2,4]triazine-1-carboxamide] | 82 nM | 39% |  | 1.18 ×10⁻⁶ cm/s | 200 µM (≈ 145 µg/mL)
C=CCN1CC(=O)N2[C@@H](Cc3ccc(O)cc3)C(=O)N(Cc3cccc(N4CC(N5CCN(C)C[C@@H]5C)C4)n3)C[C@@H]2N1C(=O)NCc1ccccc1 [Example 6, (6S,9aS)-N-Benzyl-8-((6-(3-((2S)-2,4-dimethylpiperazin-1-yl)azetidin-1-yl)pyridin-2-yl)methyl)-6-((4-hydroxyphenyl)methyl)-4,7-dioxo-2-(prop-2-en-1-yl)-octahydro-1H-pyrazino[2,1-c][1,2,4]triazine-1-carboxamide] | 250 nM | 55% | 195 µM (≈ 138 µg/mL) | 1.27 ×10⁻⁶ cm/s | 
C=CCN1CC(=O)N2[C@@H](Cc3ccc(O)cc3)C(=O)N(Cc3ccc(F)c(N4CC(N5CCN(CC)CC5)C4)n3)C[C@@H]2N1C(=O)NCc1ccccc1 [Example 7, (6S,9aS)-N-Benzyl-8-((6-(3-(4-ethylpiperazin-1-yl)azetidin-1-yl)-5-fluoropyridin-2-yl)methyl)-6-((4-hydroxyphenyl)methyl)-4,7-dioxo-2-(prop-2-en-1-yl)-octahydro-1H-pyrazino[2,1-c][1,2,4]triazine-1-carboxamide] | 95 nM | 29% | 189 µM (≈ 137 µg/mL) | 2.77 ×10⁻⁶ cm/s | 
C=CCN1CC(=O)N2[C@@H](Cc3ccc(O)cc3)C(=O)N(Cc3cccc(N4CC(N5CCN(C)CC5)C4)n3)C[C@@H]2N1C(=O)NCc1ccccc1 [Example 29, (6S,9aS)-N-Benzyl-6-((4-hydroxyphenyl)methyl)-8-((6-(3-(4-methylpiperazin-1-yl)azetidin-1-yl)pyridin-2-yl)methyl)-4,7-dioxo-2-(prop-2-en-1-yl)-octahydro-1H-pyrazino[2,1-c][1,2,4]triazine-1-carboxamide] | 470 nM | 63% |  |  | 200 µM (≈ 139 µg/mL)
